Biological target: T1, BiXyl43A (Bacteroides intestinalis, UniProt B3CES2)
T1 construct: gene BACINT_04203; GH43 module without signal peptide; N-terminal 6His tag (pET-46 Ek/LIC), E. coli BL21-CodonPlus(DE3)-RIL; IMAC and size exclusion
T1 sequence (B3CES2 1-325): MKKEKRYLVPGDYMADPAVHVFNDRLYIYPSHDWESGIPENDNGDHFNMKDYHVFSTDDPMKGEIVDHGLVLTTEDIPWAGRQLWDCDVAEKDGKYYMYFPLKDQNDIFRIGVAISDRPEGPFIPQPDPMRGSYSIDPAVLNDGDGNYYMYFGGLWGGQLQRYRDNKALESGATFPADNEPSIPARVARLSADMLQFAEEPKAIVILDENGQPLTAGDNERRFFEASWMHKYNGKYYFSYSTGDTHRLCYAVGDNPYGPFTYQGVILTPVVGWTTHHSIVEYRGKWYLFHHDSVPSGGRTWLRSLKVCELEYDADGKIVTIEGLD
Test: HPAEC-PAD of hydrolysis products
Type: biochemical
Conditions: pH […] sodium phosphate, […] NaCl, […] °C, […] min; […] substrate, […] enzyme

Row | SMILES | HPAEC-PAD of hydrolysis products
1 | OC1OC[C@@H](O[C@@H]2OC[C@@H](O)[C@H](O)[C@H]2O)[C@H](O)[C@H]1O (some centres unmarked) [X2, xylobiose] | xylo-oligosaccharides ranging from xylobiose to xylohexaose led to cleavage or hydrolysis to their unit sugar
2 | OC1OC[C@@H](O[C@@H]2OC[C@@H](O[C@@H]3OC[C@@H](O)[C@H](O)[C@H]3O)[C@H](O)[C@H]2O)[C@H](O)[C@H]1O (some centres unmarked) [X3, xylotriose] | BiXyl43A against xylo-oligosaccharides (xylobiose, X2; xylotriose, X3; xylotetraose, X4
